Results as given in the supplement of paper PMC10307832.

How the values were obtained:
Assay in all cases: relative viability (nuclei count vs DMSO), 5 days (fraction); higher = more cells survive
Dinaciclib = compound: CCc1cnn2c(NCc3ccc[n+]([O-])c3)cc(N3CCCC[C@H]3CCO)nc12 [Dinaciclib]
Procedure, shortened: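 Five library-drug doses spaced by √10 were pinned onto vehicle-anchored 1536-well plates of lung cancer cell lines that had been kept overnight at 37 °C. Cells went 5 days without medium change, then were fixed, permeabilised and Hoechst-stained together, imaged at 4× and counted by MetaXpress. Viability is the ratio of treated-well to vehicle-well nuclei, taken as a median over plates. Plates required control CV below 25% and at least one doubling.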

Dinaciclib + Vorinostat = compound: CCc1cnn2c(NCc3ccc[n+]([O-])c3)cc(N3CCCC[C@H]3CCO)nc12 [Dinaciclib] + O=C(CCCCCCC(=O)Nc1ccccc1)NO [Vorinostat] (partner 1 µM)
Procedure, shortened: (§1)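 Five library-drug doses in √10 steps were combined with a fixed anchor-drug dose, or a single drug was given alone, by pin tool to lung cancer cell lines in 1536-well plates the day after seeding. Nuclei were stained and counted after 5 days. Relative viability is the nuclei count in treated wells over that in vehicle wells, taken as the median of duplicate plates.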

Dinaciclib + Lapatinib = compound: CCc1cnn2c(NCc3ccc[n+]([O-])c3)cc(N3CCCC[C@H]3CCO)nc12 [Dinaciclib] + CS(=O)(=O)CCNCc1ccc(-c2ccc3ncnc(Nc4ccc(OCc5cccc(F)c5)c(Cl)c4)c3c2)o1 [Lapatinib] (partner 2 µM)
Procedure, shortened: as §1

Dinaciclib + Trametinib = compound: CCc1cnn2c(NCc3ccc[n+]([O-])c3)cc(N3CCCC[C@H]3CCO)nc12 [Dinaciclib] + CC(=O)Nc1cccc(-n2c(=O)n(C3CC3)c(=O)c3c(Nc4ccc(I)cc4F)n(C)c(=O)c(C)c32)c1 [Trametinib] (partner 0.02 µM)
Procedure, shortened: as §1

Dinaciclib + AZD7762 = compound: CCc1cnn2c(NCc3ccc[n+]([O-])c3)cc(N3CCCC[C@H]3CCO)nc12 [Dinaciclib] + NC(=O)Nc1cc(-c2cccc(F)c2)sc1C(=O)N[C@H]1CCCNC1 [AZD7762] (partner 0.2 µM)
Procedure, shortened: as §1

Cell Line | relative viability (Dinaciclib; 0.009487 µM) | relative viability (Dinaciclib; 0.03 µM) | relative viability (Dinaciclib; 0.09487 µM) | relative viability (Dinaciclib; 0.3 µM) | relative viability (Dinaciclib + Vorinostat; first compound 0.009487 µM) | relative viability (Dinaciclib + Vorinostat; first compound 0.03 µM) | relative viability (Dinaciclib + Vorinostat; first compound 0.09487 µM) | relative viability (Dinaciclib + Vorinostat; first compound 0.3 µM) | relative viability (Dinaciclib + Lapatinib; first compound 0.009487 µM) | relative viability (Dinaciclib + Lapatinib; first compound 0.03 µM) | relative viability (Dinaciclib + Lapatinib; first compound 0.09487 µM) | relative viability (Dinaciclib + Lapatinib; first compound 0.3 µM) | relative viability (Dinaciclib + Trametinib; first compound 0.009487 µM) | relative viability (Dinaciclib + Trametinib; first compound 0.03 µM) | relative viability (Dinaciclib + Trametinib; first compound 0.09487 µM) | relative viability (Dinaciclib + Trametinib; first compound 0.3 µM) | relative viability (Dinaciclib + AZD7762; first compound 0.009487 µM) | relative viability (Dinaciclib + AZD7762; first compound 0.03 µM) | relative viability (Dinaciclib + AZD7762; first compound 0.09487 µM) | relative viability (Dinaciclib + AZD7762; first compound 0.3 µM)
NCI-H23 | 0.633 | 0.176 | 0.109 | 0.126 | 0.512 | 0.143 | 0.104 | 0.122 | 0.31 | 0.128 | 0.12 | 0.129 | 0.305 | 0.164 | 0.13 | 0.122 | 0.246 | 0.125 | 0.107 | 0.0921
NCI-H1395 | 0.637 | 0.308 | 0.263 | 0.272 | 0.537 | 0.269 | 0.273 | 0.224 | 0.506 | 0.314 | 0.292 | 0.276 | 1.11 | 0.315 | 0.281 | 0.289 | 0.324 | 0.31 | 0.276 | 0.29
NCI-H1666 | 0.896 | 0.485 | 0.376 | 0.345 | 1.28 | 0.67 | 0.535 | 0.625 | 0.319 | 0.19 | 0.182 | 0.212 | 0.731 | 0.431 | 0.57 | 0.49 | 1.01 | 0.691 | 0.32 | 0.321
NCI-H2405 | 0.947 | 0.405 | 0.246 | 0.23 | 0.813 | 0.211 | 0.217 | 0.201 | 0.957 | 0.197 | 0.207 | 0.183 | 0.676 | 0.236 | 0.233 | 0.203 | 0.539 | 0.202 | 0.193 | 0.196
HCC-78 | 0.914 | 0.326 | 0.175 | 0.199 | 0.457 | 0.372 | 0.229 | 0.186 | 0.75 | 0.806 | 0.125 | 0.136 | 0.631 | 0.402 | 0.229 | 0.183 | 0.941 | 0.637 | 0.226 | 0.209
NCI-H2170 | 0.942 | 0.24 | 0.171 | 0.156 | 0.736 | 0.132 | 0.116 | 0.116 | 0.273 | 0.197 | 0.186 | 0.175 | 0.885 | 0.147 | 0.133 | 0.131 | 0.705 | 0.122 | 0.108 | 0.128
NCI-H1793 | 0.78 | 0.227 | 0.152 | 0.138 | 0.599 | 0.25 | 0.107 | 0.158 | 0.389 | 0.112 | 0.18 | 0.147 | 0.388 | 0.174 | 0.15 | 0.151 | 0.83 | 0.144 | 0.156 | 0.121
HCC-366 | 1.01 | 0.107 | 0.0385 | 0.0363 | 0.193 | 0.0415 | 0.0286 | 0.0247 | 0.557 | 0.0225 | 0.0184 | 0.0226 | 0.274 | 0.0898 | 0.0214 | 0.0233 | 0.406 | 0.0244 | 0.0268 | 0.0232
NCI-H1651 | 0.969 | 0.764 | 0.186 | 0.0892 | 0.616 | 0.534 | 0.358 | 0.0861 | 0.685 | 0.142 | 0.0637 | 0.0602 | 0.785 | 0.668 | 0.173 | 0.072 | 0.637 | 0.65 | 0.205 | 0.0865
LC-2-ad | 0.917 | 0.18 | 0.145 | 0.129 | 0.685 | 0.17 | 0.108 | 0.108 | 0.9 | 0.0784 | 0.058 | 0.0576 | 0.921 | 0.405 | 0.148 | 0.15 | 0.87 | 0.118 | 0.11 | 0.128
HCC-827 | 1.1 | 0.85 | 0.188 | 0.168 | 1 | 0.747 | 0.123 | 0.159 | 0.191 | 0.183 | 0.149 | 0.132 | 0.511 | 0.186 | 0.12 | 0.135 | 0.243 | 0.162 | 0.105 | 0.143
LOU-NH91 | 0.958 | 0.311 | 0.261 | 0.269 | 0.825 | 0.286 | 0.241 | 0.275 | 0.738 | 0.302 | 0.254 | 0.238 | 0.756 | 0.405 | 0.281 | 0.264 | 0.7 | 0.296 | 0.252 | 0.272
LU99A | 0.838 | 0.199 | 0.139 | 0.133 | 0.332 | 0.119 | 0.0932 | 0.109 | 0.759 | 0.121 | 0.13 | 0.127 | 0.511 | 0.14 | 0.127 | 0.146 | 0.322 | 0.11 | 0.106 | 0.115
HOP-62 | 0.957 | 0.474 | 0.0898 | 0.0943 | 0.543 | 0.0919 | 0.0742 | 0.0609 | 0.917 | 0.281 | 0.0612 | 0.0566 | 0.492 | 0.361 | 0.0804 | 0.0808 | 0.706 | 0.225 | 0.0545 | 0.068
NCI-H1734 | 0.824 | 0.145 | 0.133 | 0.14 | 0.571 | 0.144 | 0.142 | 0.126 | 0.72 | 0.158 | 0.134 | 0.143 | 0.595 | 0.278 | 0.146 | 0.136 | 0.505 | 0.108 | 0.108 | 0.089
